This is an account of results in US8771714B2, “Systems and methods for in vivo measurement of interstitial biological activity, processes and/or compositions” (MUSC Foundation for Research Development, priority 2006, dated 2014).

One test concerns MT1-MMP catalytic domain. Briefly: Validation of LTBP-1 fluorogenic substrate with MT1-MMP catalytic domain. It counts as biochemical. Conditions: 15 uM LTBP-1 substrate; 0007258 5 pM; BB94 1 uM; AB8102 1 mg/mL. The source says:
Previous studies have identified mutations within a similar type of domain in fibrillin-1, an LTBP-1 homologue, implicated in Marfan Syndrome (MFS). Furthermore, MFS has been associated with the over-stimulation of TGF-Beta signaling as a result of fibrillin-1 mutation. Using this unique sequence, a fluorogenic peptide was constructed and validated. This peptide sequence was synthesized in a caged fluorogenic construct (AnaSpec Inc, CA; newly assigned peptide name:SCJJ-1) with a certified HPLC purity of >98% FIG. 28. Using the incubation conditions and fluorescent equipment described in the previous section, and a specific excitation/emission wavelength (340/483 nm), 15 uM of LTBP-1 was exposed to increasing concentrations of the MT1-MMP catalytic domain FIG. 28.
Thus, an LTBP-1 peptide sequence constructed and validated that is specifically cleaved by MT1-MMP.

Test [1] has as its target T1, MT1-MMP (MMP-14) recombinant catalytic domain (Homo sapiens, UniProt P50281).
T1 construct: recombinant MT1-MMP catalytic domain (BIOMOL, Plymouth Meeting, Pa.); purchased BIOMOL, Plymouth Meeting, Pa
As to the kind of experiment: In vitro validation of MT1-MMP fluorogenic substrate with recombinant MT1-MMP catalytic domain. It counts as biochemical. The procedure:
Examples of fluorogenic substrate specificity for MMPs are shown below.
Specifically, MT1-MMP substrate (7.5 mM) was injected into a 96-well polystyrene plate (Nalge Nunc International, Rochester, N.Y.) with a 1.0 ng/mL concentration of recombinant MT1-MMP catalytic domain (BIOMOL, Plymouth Meeting, Pa.) and fluorescence emission was recorded. A rapid rise in activity, as measured by fluorescence emission, plateaued around 90 minutes. […] (FIG. 15, top). In addition, full length MT1-MMP (pretreated with 10 mM p-aminophenylmercuric acetate) was incubated for 1 hour at 37° C. with or without an antibody specific for the catalytic domain of MT1-MMP (1000 ng/mL, Chemicon AB8102). After the incubation period, the MT1-MMP substrate was injected and fluorescence emission recorded.
(§1) In an additional set of experiments (FIG. 16), MT1-MMP catalytic domain (1000 ng/mL, BIOMOL, Plymouth Meeting, Pa.) was injected into a 96-well polystyrene plate (Nalge Nunc International, Rochester, N.Y.) with a 30 mM mixture of MT1-MMP substrate only or MT1-MMP substrate with MMP-2/9 (500 ng/mL, Chemicon; FIG. 16, top), MMP-8 (10 ng/mL, Calbiochem; FIG. 16, middle), or a disintegrin and metalloproteinase (ADAM)-10 and -17 cocktail (200 ng/mL, R&D Systems; FIG. 16, bottom).

The target in another test is T2, MMP-14 (Homo sapiens, UniProt P50281).
T2 construct: from tissue; host or cells: human myocardium, crude homogenate
Briefly: Ex-vivo MMP-14 activity in myocardial extracts. It counts as biochemical. The arrangement: dose or concentration left out as unconfirmed. Conditions: BB94; FIG. 22. The procedure: A similar experiment was done utilizing the fluorogenic substrate specific for MT1-MMP (MMP-14). Substrate (MMP-14 Substrate I, Fluorogenic, Calbiochem) was diluted in the same reaction buffer and loaded into the FLUOstar® for automatic injection (10 μM). […] The reaction was allowed to proceed in which 200 recordings (398 minutes) were collected. This reaction using the MMP-14 specific substrate was linear with increasing concentrations of a recombinant MMP-14 catalytic domain ([…], Chemicon) (FIG. 20).

In another test the test system is MMP-1, 2, 3, 7, 9. As to the kind of experiment: Ex-vivo MMP-1, 2, 3, 7, 9 activity in myocardial extracts. It counts as biochemical, human. The arrangement: dose or concentration left out as unconfirmed. The settings on record: BB94; FIG. 18. How it is done:
In addition, these substrates were used to examine MMP activity ex-vivo using myocardial samples from both human and animal specimens. The frozen myocardial tissue was submerged in 2 mL of ice-cold buffer (Cacodylic Acid, NaCl, ZnCl2, CaCl2, NaN3, 0.08% Triton X), homogenized, and spun at 8,000 G for 10 minutes at 4C. The supernatant was then measured, tested for protein concentration, aliquoted, and stored at −70° C. Final protein concentrations were diluted in a reaction buffer containing (0.05% Brij, 50 mM Tris-HCl, 0.2 M NaCl, 10 mM CaCl2, […]) and the samples were loaded onto a 96-well microplate (FluoroNunc® 96-Well Polystyrene Plates) and placed in a 37° C. temperature controlled unit allowing for continuous fluorescence measurements (FLUOstar® Galaxy, BMG Labtechnologies). Substrate (MMP Substrate, Fluorogenic, Calbiochem) was diluted in the same reaction buffer and loaded into the FLUOstar® for automatic injection (12 mM). […] Excitation was set to (280 nm) and emission was set to (360 nm) and readings were taken every 2 minutes following the addition of the substrate. The reaction was allowed to proceed to 200 recordings (398 minutes). This reaction using the MMP-1, 2, 3, 7, 9 specific substrate was linear with increasing concentrations.

Test [2] concerns MMP-2/9 recombinant protein. As to the kind of experiment: MMP-1, 2, 3, 7, 9 substrate incubated with MMP-2/9 recombinant protein. It counts as biochemical. How it is done: Microdialysis: Microdialysis probes with a molecular weight cutoff of 20 kDa and an outer diameter of 0.5 mm were placed in the LV. The molecular weight cutoff of the microdialysis probe prevented any MMP species from traversing the membrane. A fluorogenic substrate specific for MMP-1, 2, 3, 7, and 9 (Calbiochem, La Jolla, Calif.) at a concentration of 60 ˜mol/L was stored in a 2.5 mL Bee Stinger® Gastight Syringe (Bioanalytical Systems, Inc) and infused at a rate of 5 ˜L/min through the 2 probes by the Baby Bee® Syringe Drive controlled by the MD-1020 Bee Hive Controller (Bioanalytical Systems, Inc). Fluorescence emitted via substrate cleavage deter-mined MMP activity. Substrate was allowed to equilibrate for 20 minutes before the beginning of the protocol. All tubing and syringes were protected from light. The specificity of this substrate was determined and performed as described for these fluorogenic substrates previously. […] With the addition of a broad spectrum MMP inhibitor (BB-94, 10 mmol/L, British Biotech), fluorescence emission was abolished.

The next test has as its target angiotensin receptor (Sus scrofa, UniProt P30555). The settings on record: bolus of 1 mg/kg, infusion of 3 ng/kg/h; previously found; cited from earlier work.
The test system of another test is MMP-2 and MMP-9. On the set-up: species or system pigs. The settings on record: pig, in vivo.
The next test has as its system MMPs. Conditions: MMPs that cleave the substrate, commercially available substrates, cited from earlier work.
A further test has as its system purified MMP-2/9. As to the kind of experiment: In vitro microdialysis of MMP substrate in immersion solution with purified MMP-2/9. The class given is biochemical. The settings on record: infused at 2.5 ml/min, purified MMP-2/9, 37° C.
The subject of a further test is MMP-2/9. As to the kind of experiment: Specificity of MT1-MMP substrate: incubation with MMP-2/9. The settings on record: MMP-2/9 500 ng/mL alone, 30 mM substrate. It counts as biochemical. The procedure: as §1
Another test concerns the target T3, MMP-8 (Homo sapiens, UniProt P22894).
T3 construct: purchased Calbiochem
As to the kind of experiment: Specificity of MT1-MMP substrate: incubation with MMP-8. The class given is biochemical. The settings on record: MMP-8 10 ng/mL alone, 30 mM substrate. The procedure:
as §1

For test [3], the system named is a disintegrin and metalloproteinase (ADAM)-10 and -17. Briefly: Specificity of MT1-MMP substrate: incubation with ADAM-10 and -17 cocktail. It counts as biochemical. Conditions: ADAM-10 and -17 cocktail 200 ng/mL alone, 30 mM substrate. The procedure: as §1

Like-named read-outs stand apart in the source and are kept apart here. Square brackets hold non-standard residues; d marks the D form. * marks the point of attachment. Dpa = 3-(2,4-dinitrophenyl)-L-2,3-diaminopropionyl; Dnp = O=[N+]([O-])c1ccc(*)c([N+](=O)[O-])c1; Mca = COc1ccc2c(CC(=O)*)cc(=O)oc2c1; Cha = N[C@@H](CC1CCCCC1)C(=O)O; Nva = CCC[C@H](N)C(=O)O; Mob = COc1ccc(C*)cc1

T3 sequence (P22894 101-467, species assumed): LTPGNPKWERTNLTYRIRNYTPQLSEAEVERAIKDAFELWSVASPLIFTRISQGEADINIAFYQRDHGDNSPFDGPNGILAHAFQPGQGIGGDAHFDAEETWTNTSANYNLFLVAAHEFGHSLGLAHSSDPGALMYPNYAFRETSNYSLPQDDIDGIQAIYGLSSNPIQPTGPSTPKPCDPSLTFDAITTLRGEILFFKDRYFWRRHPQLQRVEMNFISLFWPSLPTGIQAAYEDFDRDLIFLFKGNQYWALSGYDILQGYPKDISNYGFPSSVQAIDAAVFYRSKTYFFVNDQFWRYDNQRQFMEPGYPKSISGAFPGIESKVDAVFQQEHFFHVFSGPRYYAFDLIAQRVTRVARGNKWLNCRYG
Chain of angiotensin receptor (P30555 whole entry, the tested form may be a part): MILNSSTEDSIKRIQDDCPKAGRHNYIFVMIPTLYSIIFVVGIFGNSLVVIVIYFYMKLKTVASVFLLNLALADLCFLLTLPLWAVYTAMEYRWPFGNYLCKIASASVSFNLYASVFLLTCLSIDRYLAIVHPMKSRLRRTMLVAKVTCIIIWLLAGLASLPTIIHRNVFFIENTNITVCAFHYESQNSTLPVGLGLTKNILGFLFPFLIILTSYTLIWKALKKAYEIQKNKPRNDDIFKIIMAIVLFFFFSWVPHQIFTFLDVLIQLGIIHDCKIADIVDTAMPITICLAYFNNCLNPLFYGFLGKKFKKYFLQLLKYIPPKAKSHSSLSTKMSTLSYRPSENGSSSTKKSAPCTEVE
Description for MMP-2 and MMP-9: Myocardial Infarction: Mature pigs (n 5 20, Yorkshire, 35-40 kg, Hambone Farms) were instrumented to obtain indexes of LV global and regional function as well as for the measurement of myocardial interstitial MMPs. […] A loading dose of 50 mg sufentanil (Elkins-Sinn) was then administered, and a maintenance infusion of lactated Ringer solution (400 ml/h) and morphine 60 mg/h, Elkins-Sinn) was initiated. A continuous infusion of tubocurarine (3 mg/h, Bristol-Myers-Squibb) and lidocaine (120 mg/h, Elkins-Sinn) was established. In preliminary studies, this anesthetic protocol provided a deep anesthetic plane and stable hemodynamic profiles for at least 8 hours.
In a second set of studies, interstitial myocardial MMP activity was directly quantified using a MMP fluorogenic substrate. For these studies, microdialysis probes containing a 20-kDa molecular mass cutoff (CMA/20, CMA/Microdialysis) membrane were placed within the mid-myocardium. This molecular mass cutoff effectively excluded MMP species from directly traversing from the interstitial space into the microdialysis membrane. […] The samples were read using excitation and emission wavelengths of 280 and 360 nm, respectively (Gilford Fluoro IV; Oberlin, Ohio). […]

Regarding `CNC(=O)[C@H](Cc1ccccc1)NC(=O)[C@H](CC(C)C)[C@H](CSc1cccs1)C(=O)NO` [BB94], the “fluorescent activity on co-incubation” value in the test on MT1-MMP catalytic domain was “extinguished all fluorescent activity”. Further, the “fluorescence emission with addition of BB94” value in test [1] (MT1-MMP recombinant catalytic domain, FIG. 13) is given as “abolishment of fluorescence emission”. In addition, the “inhibition of MMP-14 substrate reaction” value at MMP-14 is “significantly inhibited”. Besides, in the test on MMP-1, 2, 3, 7, 9, the “inhibition of MMP-1, 2, 3, 7, 9 substrate reaction” value was “significantly inhibited”. For the same compound, the “fluorescence emission with addition of inhibitor” value in test [2] (BB-94, MMP-2/9 500 ng/mL) is reported as “abolished”. For the compound `CCCCC(=O)N(Cc1ccc(-c2ccccc2-c2nnn[nH]2)cc1)[C@H](C(=O)O)C(C)C` [Valsartan], at angiotensin receptor, the “effect on angiotensin pressor response” value was “inhibited the angiotensin pressor response”. Take `CNC(=O)[C@H](Cc1c[nH]c2ccccc12)NC(=O)[C@@H](CC(=O)NO)CC(C)C` [galardin]: the “fluorescent activity in interstitial microdialysate samples on coinfusion with MMP substrate” value in the test with MMP-2 and MMP-9 is listed as “abolished all fluorescent activity”. On to “DABCYL-GABA-Arg-Pro-Lys-Pro-Val-Glu-Nva-Trp-Arg-Glu(EDANS)-Ala-Lys-NH2 [SEQ ID NO: 2]”, for which, in the test on MMPs, the Specificity result is on record as “MMP-3,5,9,13”. “DNP-Arg-Pro-Leu-Ala-Leu-Trp-Arg-Ser-OH (Dnp-RPLALWRS-OH; SMILES CC(C)C[C@H](NC(=O)[C@H](C)NC(=O)[C@H](CC(C)C)NC(=O)[C@@H]1CCCN1C(=O)[C@H](CCCNC(=N)N)Nc1ccc([N+](=O)[O-])cc1[N+](=O)[O-])C(=O)N[C@@H](Cc1c[nH]c2ccccc12)C(=O)N[C@@H](CCCNC(=N)N)C(=O)N[C@@H](CO)C(=O)O) [SEQ ID NO: 5]”: the Specificity result in the test with MMPs is “MMP-7”. Take “DNP-Pro-Leu-Ala-Leu-Trp-Arg-OH (Dnp-PLALWR-OH; SMILES CC(C)C[C@H](NC(=O)[C@H](C)NC(=O)[C@H](CC(C)C)NC(=O)[C@@H]1CCCN1c1ccc([N+](=O)[O-])cc1[N+](=O)[O-])C(=O)N[C@@H](Cc1c[nH]c2ccccc12)C(=O)N[C@@H](CCCNC(=N)N)C(=O)O) [SEQ ID NO: 3]”: the Specificity entry in the test with MMPs is reported as “MMP-1”.

As to “DNP-Pro-Leu-Ala-Tyr-Trp-Ala-Arg-OH (Dnp-PLAYWAR-OH; SMILES CC(C)C[C@H](NC(=O)[C@@H]1CCCN1c1ccc([N+](=O)[O-])cc1[N+](=O)[O-])C(=O)N[C@@H](C)C(=O)N[C@@H](Cc1ccc(O)cc1)C(=O)N[C@@H](Cc1c[nH]c2ccccc12)C(=O)N[C@@H](C)C(=O)N[C@@H](CCCNC(=N)N)C(=O)O) [SEQ ID NO: 6]”, in the test with MMPs, the Specificity result is on record as “MMP-8”. Take “DNP-Pro-Leu-Gly-Leu-Trp-Ala-D-Arg-NH2 (Dnp-PLGLWA[dR]-NH2; SMILES CC(C)C[C@H](NC(=O)CNC(=O)[C@H](CC(C)C)NC(=O)[C@@H]1CCCN1c1ccc([N+](=O)[O-])cc1[N+](=O)[O-])C(=O)N[C@@H](Cc1c[nH]c2ccccc12)C(=O)N[C@@H](C)C(=O)N[C@H](CCCNC(=N)N)C(N)=O) [SEQ ID NO: 1]”: the Specificity entry with MMPs is given as “MMP-1,2,3,7,9”; in the test with MMPs (listed as SEQ ID NO:1), “cleaved selectively by MMPs 1, 2, 3, 7, 9”. Further, the “time to steady-state fluorescence emission” value in test [2] (MMP-2/9 recombinant protein 500 ng/mL) is at most 60 min. In the case of “DNP-Pro-Leu-Gly-Met-Trp-Ser-Arg-OH (Dnp-PLGMWSR-OH; SMILES CSCC[C@H](NC(=O)CNC(=O)[C@H](CC(C)C)NC(=O)[C@@H]1CCCN1c1ccc([N+](=O)[O-])cc1[N+](=O)[O-])C(=O)N[C@@H](Cc1c[nH]c2ccccc12)C(=O)N[C@@H](CO)C(=O)N[C@@H](CCCNC(=N)N)C(=O)O) [SEQ ID NO: 9]”, the Specificity result with MMPs is “MMP-2,9”. Consider “DNP-Pro-Tyr-Ala-Tyr-Trp-Met-Arg-OH (Dnp-PYAYWMR-OH; SMILES CSCC[C@H](NC(=O)[C@H](Cc1c[nH]c2ccccc12)NC(=O)[C@H](Cc1ccc(O)cc1)NC(=O)[C@H](C)NC(=O)[C@H](Cc1ccc(O)cc1)NC(=O)[C@@H]1CCCN1c1ccc([N+](=O)[O-])cc1[N+](=O)[O-])C(=O)N[C@@H](CCCNC(=N)N)C(=O)O) [SEQ ID NO: 4]”, for which, in the test with MMPs, the Specificity result was “MMP-3”. As to Dnp-PLGLGMWSR-OH, in the test with purified MMP-2/9, the “time at which relative fluorescence plateaued” value is at most 60 min. With “MCA-Pro-Cha-Gly-Nva-His-Ala-Dpa-NH2 (Mca-P[Cha]G[Nva]HA-{Dpa-NH2}) [SEQ ID NO: 7]”, in the test with MMPs, the Specificity entry is on record as “MMP-13”. On to “MCA-Pro-Leu-Ala-Cys(p-OMeBz)-Trp-Ala-Arg(Dpa)-NH2 (Mca-PLAC(Mob)WAR(Dpa)-NH2) [SEQ ID NO: 8]”, for which the Specificity result is “MMP-14” with MMPs and “cleaved selectively by MMP-14” in the test on MMPs (listed as SEQ ID NO:8). In addition, the “fluorescence emission from the substrate” value in the test on MMP-2/9 was “failed to cause fluorescence emission”; with MMP-8, “failed to cause fluorescence emission”; in [1] (injection of MT1-MMP catalytic domain 1000 ng/mL, in all protease cocktails) it was “rapid rise in fluorescence emission”; in [3], “failed to cause fluorescence emission”. The “time at which fluorescence emission plateaued” value in test [1] (substrate 7.5 mM, 1.0 ng/mL recombinant MT1-MMP catalytic domain) is “around 90 minutes”.
